# Reference: patent US6458815B2, “Sulfonamide compounds and methods of treating atherosclerosis and restenosis” (Warner-Lambert Company, priority 1998, dated 2002)
# What was measured:
# [1] = target: apolipoprotein(a), [apo(a)], apolipoproteinB-100, [apoB-100], coupling reaction that generates Lp(a) (Homo sapiens, UniProt P04114+P08519); assay: LPABC screen: lipoprotein(a) biochemical coupling assay, Lp(a) content by ELISA; conditions: recombinant apo(a) 17-kringle (293 cell conditioned media) + HepG2 conditioned media, 67 minutes at 37° C., 0.3 to 50 μM compound
# Procedure: The lipoprotein(a), [Lp(a)], biochemical coupling assay (LPABC) is used to characterize inhibitors of the apolipoprotein(a), [apo(a)], apolipoproteinB-100, [apoB-100], coupling reaction that generates Lp(a). Conditioned media from 293 cells (ATCC CRL-1573), permanently transfected with an apo(a) 17-kringle cDNA expression construct (pcDNA-AMP, In Vitrogen, Carlsbad, Calif.) using standard molecular biology techniques, was used as a source of recombinant apo(a) is diluted 1:3 with phosphate buffered saline (PBS) and 90 μL is pipetted into each well of a 96-well plate and placed into 37° C. incubator for 10 minutes. Twenty microliters of a 0.3 to 50 μM solution of a compound of the present invention in PBS is added to the warmed plate. Ninety microliters of HepG2 (ATCC HB-8065) cell conditioned media diluted 1:3 with PBS is added to the apo(a)/compound mixture and mixed by pipetting up and down 5 times. The reaction is incubated for 67 minutes in a 37° C. incubator. A 100 μL aliquot of the reaction is removed and assayed for its Lp(a) content by an enzyme linked immunosorbent assay (ELISA).
# [2] = test system: Lp(a) production in HepG2^K17 cells; assay: LPA3 screen: inhibition of Lp(a) production in transfected HepG2 cells, Lp(a) in media by ELISA; type: cell-based; conditions: Homo sapiens, 8 hours incubation, 0.3 to 50 μM compound, Lp(a) normalized for total protein
# Procedure: The LPA3 screen is used to identify compounds that inhibit Lp(a) production. This screen employs permanently transfected HepG2 cells (HepG2^K17) that are generated using an apo(a) 17-kringle cDNA expression construct (pcDNA-AMP, In Vitrogen, Carlsbad, Calif.) in accordance with methods that are well-known in molecular biology.
# HepG2^K17 cells are seeded in 96-well plates at a density of 75,000 cells per well in 0.25 mL of Dulbecco's Modified Eagle Media (DMEM) containing 10% fetal bovine serum (FBS). Seeded plates are incubated overnight in a 37° C., 5% CO2/95% O2 incubator. The media is removed, replaced with (1) fresh media, or (2) fresh media plus 0.3 to 50 μM of a compound of the present invention in 20 μL of PBS, and the plates returned to the incubator for 8 hours. After the additional 8 hours of incubation, Lp(a) is assayed in the media by ELISA. Cells are digested with 0.5N NaOH overnight and assayed for total protein. Lp(a) values are normalized for total protein content.
Compound,IC50 [1] [µM],melting point [°C],IC50 [2] [µM]
"COc1ccc(N(Cc2cc(C(C)(C)C)c(O)c(C(C)(C)C)c2)S(=O)(=O)c2cccs2)cn1 [Example 6, Thiophene-2-sulfonic Acid (3,5-di-tert-butyl-4-hydroxy-benzyl)-6-methoxy-pyridin-3-yl-amide]",3.15,–,–
"Cc1ccc(S(=O)(=O)N(Cc2cc(C(C)(C)C)c(O)c(C(C)(C)C)c2)c2cccnc2)cc1 [Example 3, N-(3,5-Di-tert-butyl-4-hydroxy-benzyl)-4-methyl-N-pyridin-3-yl-benzenesulfonamide]",3.94,121 to 123,6.9
"CC(=O)Nc1ccc(S(=O)(=O)N(Cc2cc(C(C)(C)C)c(O)c(C(C)(C)C)c2)c2cccnc2)cc1 [Example 8, N-(3,5-Di-tert-butyl-4-hydroxy-benzyl)-4-acetamido-N-pyridin-3-yl-benzenesulfonamide]",3.5,167 to 169,12.5
"CC(C)(C)c1cc(CN(c2cccnc2)S(=O)(=O)c2cccc([N+](=O)[O-])c2)cc(C(C)(C)C)c1O [Example 10, N-(3,5-Di-tert-butyl-4-hydroxy-benzyl)-3-nitro-N-pyridin-3-yl-benzenesulfonamide]",4,99 to 107,7.4
"CC(C)(C)c1cc(CN(c2cccnc2)S(=O)(=O)c2ccc(F)cc2)cc(C(C)(C)C)c1O [Example 4, N-(3,5-Di-tert-butyl-4-hydroxy-benzyl)-4-fluoro-N-pyridin-3-yl-benzenesulfonamide]",2.6,–,7.5
"CC(C)(C)c1cc(CN(c2cccnc2)S(=O)(=O)c2cccs2)cc(C(C)(C)C)c1O [Example 7, Thiophene-2-sulfonic Acid (3,5-di-tert-butyl-4-hydroxy-benzyl)-pyridin-3-yl-amide]",3.5,118 to 120,8.9
"CC(C)(C)c1cc(CN(c2cccnc2)S(=O)(=O)c2ccc([N+](=O)[O-])cc2)cc(C(C)(C)C)c1O [Example 5, N-(3,5-Di-tert-butyl-4-hydroxy-benzyl)-4-nitro-N-pyridin-3-yl-benzenesulfonamide]",2.6,159 to 160,9.4
"COc1ccc(S(=O)(=O)N(Cc2cc(C(C)(C)C)c(O)c(C(C)(C)C)c2)c2cccnc2)cc1 [Example 9, N-(3,5-Di-tert-butyl-4-hydroxy-benzyl)-4-methoxy-N-pyridin-3-yl-benzene Sulfonamide]",3.7,142 to 143,5.8
"CC(C)(C)c1cc(CN(c2cccnc2)S(=O)(=O)c2ccc(-c3ccccn3)s2)cc(C(C)(C)C)c1O [Example 1, 5-Pyridin-2-yl-thiophene-2-sulfonic Acid (3,5-di-tert-butyl-4-hydroxy-benzyl)-pyridin-3-yl-amide]",1.66,–,–
"CCOC(=O)C(c1cc(C(C)(C)C)c(O)c(C(C)(C)C)c1)N(CC1CCCCC1)S(C)(=O)=O (stereo not drawn) [Example 2, (Cyclohexylmethyl-methanesulfonyl-amino)-(3,5-Di-tert-butyl-4-hydroxy-phenyl)-acetic Acid Ethyl Ester]",1.92,–,27.2

# Second part, led by results:
IC50 [1] [µM],melting point [°C],Compound,IC50 [2] [µM]
2.43,105 to 107,"CC(C)(C)c1cc(CN(c2cccnc2)S(=O)(=O)c2ccccc2Br)cc(C(C)(C)C)c1O [Example 15, N-(3,5-di-tert-butyl-4-hydroxybenzyl)-2-bromo-N-pyridin-3-yl-benzenesulfonamide]",–
5.58,133 to 134,"CC(C)(C)c1cc(CN(c2cccnc2)S(C)(=O)=O)cc(C(C)(C)C)c1O [Example 12, N-(3,5-Di-tert-butyl-4-hydroxy-benzyl)-N-pyridin-3-yl-methanesulfonamide]",41.2
7.1,160 to 171,"CC(C)(C)c1cc(CN(c2cccnc2)S(=O)(=O)c2ccc3ccccc3c2)cc(C(C)(C)C)c1O [Example 17, N-(3,5-di-tert-butyl-4-hydroxybenzyl)-2-naphthalene-N-pyridin-3-yl-sulfonamide]",–
4.12,143 to 145,"CC(C)(C)c1cc(CN(c2cccnc2)S(=O)(=O)c2ccccc2)cc(C(C)(C)C)c1O [Example 11, N-(3,5-Di-tert-butyl-4-hydroxy-benzyl)-3-N-pyridin-3-yl-benzenesulfonamide]",16.2
11.8,155 to 156,"CC(C)(C)c1ccc(S(=O)(=O)N(Cc2cc(C(C)(C)C)c(O)c(C(C)(C)C)c2)c2cccnc2)cc1 [Example 13, N-(3,5-Di-tert-butyl-4-hydroxy-benzyl)-4-tert-butyl-N-pyridin-3-yl-benzenesulfonamide]",23.6
2.1,117 to 119,"Cc1ccc(S(=O)(=O)N(Cc2cc(C(C)(C)C)c(O)c(C(C)(C)C)c2)c2cccnc2Cl)cc1 [Example 14, N-(2-Chloro-pyridin-3-yl)-N-(3,5-di-tert-butyl-4-hydroxy-benzyl)-4-methyl-benzenesulfonamide]",–
2.1,152 to 153,"Cc1ccc(S(=O)(=O)N(Cc2cc(C(C)(C)C)c(O)c(C(C)(C)C)c2)c2ccc(Cl)nc2)cc1 [Example 16, N-(6-Chloro-pyridin-3-yl)-N-(3,5-di-tert-butyl-4-hydroxybenzyl)-4-methyl-benzenesulfonamide]",–
2.42,127 to 129,"COc1ccc(N(Cc2cc(C(C)(C)C)c(O)c(C(C)(C)C)c2)S(=O)(=O)c2ccc(C)cc2)cn1 [Example 18, N-(3,5-di-tert-butyl-4-hydroxy-benzyl)-N-(6-methoxy-pyridin-3-yl)-4methyl-benzenesulfonamide]",–
2.76,129 to 131,"CC(C)(C)c1cc(CN(c2cccnc2)S(=O)(=O)c2cccc(Br)c2)cc(C(C)(C)C)c1O [Example 19, N-(3,5-di-tert-butyl-4-hydroxybenzyl)-3-bromo-N-pyridin-3-yl-benzenesulfonamide]",–
